Experimental data published in ChEMBL document CHEMBL2440063, “Fragment-based identification of a locus in the Sec7 domain of Arno for the design of protein-protein interaction inhibitors” (J Med Chem, 2013).
Calls of active or inactive are those of the source. No cut-off for these calls is given here.

Columns and labels:
[1] = target: T1, Cytohesin-2 (Homo sapiens) (UniProt Q99418); assay: Inhibition of human Arno Sec7 domain-mediated nucleotide exchange in delta17 Arf1 (17 to 181) at 1 mM by BODIPY-GTP based time resolved fluorescence assay relative to control
T1 sequence (whole entry): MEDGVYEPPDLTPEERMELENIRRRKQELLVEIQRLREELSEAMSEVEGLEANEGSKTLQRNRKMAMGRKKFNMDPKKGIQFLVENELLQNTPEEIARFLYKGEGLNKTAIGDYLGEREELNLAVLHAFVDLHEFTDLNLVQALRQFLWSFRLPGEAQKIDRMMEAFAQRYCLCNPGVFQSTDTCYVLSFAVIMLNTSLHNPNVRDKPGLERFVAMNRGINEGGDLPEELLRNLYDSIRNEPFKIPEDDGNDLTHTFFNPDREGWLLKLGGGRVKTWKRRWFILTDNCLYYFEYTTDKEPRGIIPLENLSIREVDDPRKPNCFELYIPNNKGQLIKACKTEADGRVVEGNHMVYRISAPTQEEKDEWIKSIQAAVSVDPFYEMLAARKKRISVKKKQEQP

Cytohesin-2 [2] = target: T2, Cytohesin-2 (Homo sapiens, UniProt Q99418); assay: Binding affinity to human Arno Sec7 domain immobilized on CAP sensor chip after 15 mins by […]
T2 sequence (Q99418 whole entry): T1 sequence (whole entry)

Cytohesin-2 [3] = target: T2, Cytohesin-2; assay: Inhibition of human Arno Sec7 domain-mediated nucleotide exchange in delta17 Arf1 (17 to 181) by BODIPY-GTP based time resolved fluorescence assay; conditions: read-out: Ki(app)
[4] = target: T1, Cytohesin-2 (Homo sapiens); assay: Inhibition of human Arno Sec7 domain […] delta17 Arf1 (17 to 181) at 1 mM after 15 mins by BODIPY-GTP based time resolved fluorescence assay relative to control
[5] = target: T1, Cytohesin-2 (Homo sapiens); assay: Inhibition of human Alexa 488 labeled Arno Sec7 domain-mediated promiscuous aggregator activity in delta17 Arf1 (17 to 181) at 1 to 100 uM by fluorescence anisotropy assay
[6] = target: T1, Cytohesin-2 (Homo sapiens); assay: Binding affinity to human Arno Sec7 domain immobilized on CAP sensor chip at 1 mM after 15 mins by […]
[7] = target: T1, Cytohesin-2 (Homo sapiens); assay: Binding affinity to human Arno Sec7 domain immobilized on CAP sensor chip at 250 uM by surface plasmon resonance analysis
[8] = target: T1, Cytohesin-2 (Homo sapiens); assay: Inhibition of human Arno Sec7 domain-mediated nucleotide exchange in delta17 Arf1 (17 to 181) at 2 mM by BODIPY-GTP based time resolved fluorescence assay relative to control
[9] = target: T1, Cytohesin-2 (Homo sapiens); assay: Inhibition of human Alexa 488 labeled Arno Sec7 domain-mediated promiscuous aggregator activity in delta17 Arf1 (17 to 181) at >20 uM by fluorescence anisotropy assay
[10] = target: T1, Cytohesin-2 (Homo sapiens); assay: Inhibition of human Alexa 488 labeled Arno Sec7 domain-mediated promiscuous aggregator activity in delta17 Arf1 (17 to 181) at 100 uM by fluorescence anisotropy assay

SMILES	inhibition [1]	Ki (Cytohesin-2 [3])	Activity [6]	Activity [7]	inhibition [8]	also measured
Cc1c(C(N)=O)sc(N)c1C(=O)OC(C)C			Active	inactive	37.9%	inhibition [5]: inactive
O=C1CNC(=O)N1C12CC3CC(CC(C3)C1)C2			inactive	Active		
CCN(CC)Cc1cc(NC(C)=O)ccc1O			inactive	Active		
Cc1cc(O)cc(C)c1NC(=O)c1cccc([N+](=O)[O-])c1			Active		16%	
Cc1cc(O)ccc1NS(=O)(=O)c1cccs1			Active	Active	16.4%	inhibition [5]: inactive
Clc1ccccc1C(c1ccccc1)(c1ccccc1)n1ccnc1						inhibition [9]: Active
Cc1ccc(C)c(-c2csc(N)n2)c1			Active	Active	22.6%	inhibition [5]: inactive
COc1cc(C(=O)Nc2c(C)cc(O)cc2C)cc(OC)c1OC			Active		9.9%	
O=S(=O)(Nc1ccccc1O)c1ccccc1	21.6%		inactive			
CC(C)(C)c1ccc(C(=O)NCc2ccco2)cc1						inhibition [10]: Active

Now from value to molecule, other results behind:

inhibition [1]	Ki (Cytohesin-2 [3])	Activity [6]	Activity [7]	inhibition [8]	SMILES	also measured
66.7%					Cc1ccc(S(=O)(=O)Nc2cc(C)c(O)cc2C)cc1	
	3.72 mM	Active	Active	34.6%	Cc1cc(O)cc(C)c1NS(=O)(=O)c1ccccc1	Kd (Cytohesin-2 [2]): 500 µM; inhibition [4]: 30%; inhibition [5]: inactive
	5.12 mM			31.2%	Cc1cc(NS(=O)(=O)c2ccccc2)cc(C)c1O	
32.1%	1.61 mM				COc1ccc(S(=O)(=O)Nc2c(C)cc(O)cc2C)cc1	inhibition [4]: 35%
51.5%	0.98 mM				Cc1cc(C)c(S(=O)(=O)Nc2ccc(O)cc2C)c(C)c1	
58.4%	0.54 mM	Active			Cc1cc(O)cc(C)c1NS(=O)(=O)c1ccc([N+](=O)[O-])cc1	
				24.2%	Cc1c(O)ccc(NS(=O)(=O)c2ccccc2)c1C	
32.7%	1.91 mM				Cc1ccc(S(=O)(=O)Nc2c(C)cc(O)cc2C)cc1	
